From ChEMBL document CHEMBL6127139, “Lysine-Targeted Covalent Inhibitors of PI3Kδ Synthesis and Screening by In Situ Interaction Upgradation” (J Med Chem, 2024)
Active and inactive are the calls of the source. No cut-off for these calls is given here.

Columns and labels:
[1] = system: Pfeiffer; experiment: Antitumor activity against human Pfeiffer cells xenografted in male nude mouse assessed as tumor growth inhibition at 30 mg/kg/day, po administered for 14 days relative to control; assay type: functional; conditions: 336 h, time 14 day, read-out: TGI
[2] = system: SU-DHL-6; experiment: Induction of cell cycle arrest in human SU-DHL-6 cells assessed as increase in G0/G1 phase cells incubated for 24 hrs by PI staining based flow cytometric analysis; assay type: functional; conditions: dose 1-100 nM
[3] = system: Mus musculus; experiment: In vivo inhibition of PI3K signaling pathway in male nude mouse xenografted with human SU-DHL-6 cells assessed as reduction in AKT phosphorylation in tumor at 5 to 30 mg/kg/day, po administered for 14 days by Western blot analysis; assay type: functional, organism-based; conditions: dose 5-30 mg/kg/day, time 14.0 day
[4] = Selectivity index, ratio of IC50 for inhibition of recombinant PI3Kbeta (unknown origin) using PIP2:3PS as substrate to IC50 for inhibition of recombinant PI3Kdelta (unknown origin) using PIP2:3PS as substrate
[5] = target: Phosphatidylinositol 4,5-bisphosphate 3-kinase catalytic subunit alpha isoform (Homo sapiens, UniProt P42336); experiment: Inhibition of recombinant PI3Kalpha (unknown origin) using PIP2:3PS as substrate preincubated for 20 mins followed by ATP addition and measured after 1 hrs by ADP-Glo reagent based assay
Chain of Phosphatidylinositol 4,5-bisphosphate 3-kinase catalytic subunit alpha isoform (P42336 whole entry, canonical isoform): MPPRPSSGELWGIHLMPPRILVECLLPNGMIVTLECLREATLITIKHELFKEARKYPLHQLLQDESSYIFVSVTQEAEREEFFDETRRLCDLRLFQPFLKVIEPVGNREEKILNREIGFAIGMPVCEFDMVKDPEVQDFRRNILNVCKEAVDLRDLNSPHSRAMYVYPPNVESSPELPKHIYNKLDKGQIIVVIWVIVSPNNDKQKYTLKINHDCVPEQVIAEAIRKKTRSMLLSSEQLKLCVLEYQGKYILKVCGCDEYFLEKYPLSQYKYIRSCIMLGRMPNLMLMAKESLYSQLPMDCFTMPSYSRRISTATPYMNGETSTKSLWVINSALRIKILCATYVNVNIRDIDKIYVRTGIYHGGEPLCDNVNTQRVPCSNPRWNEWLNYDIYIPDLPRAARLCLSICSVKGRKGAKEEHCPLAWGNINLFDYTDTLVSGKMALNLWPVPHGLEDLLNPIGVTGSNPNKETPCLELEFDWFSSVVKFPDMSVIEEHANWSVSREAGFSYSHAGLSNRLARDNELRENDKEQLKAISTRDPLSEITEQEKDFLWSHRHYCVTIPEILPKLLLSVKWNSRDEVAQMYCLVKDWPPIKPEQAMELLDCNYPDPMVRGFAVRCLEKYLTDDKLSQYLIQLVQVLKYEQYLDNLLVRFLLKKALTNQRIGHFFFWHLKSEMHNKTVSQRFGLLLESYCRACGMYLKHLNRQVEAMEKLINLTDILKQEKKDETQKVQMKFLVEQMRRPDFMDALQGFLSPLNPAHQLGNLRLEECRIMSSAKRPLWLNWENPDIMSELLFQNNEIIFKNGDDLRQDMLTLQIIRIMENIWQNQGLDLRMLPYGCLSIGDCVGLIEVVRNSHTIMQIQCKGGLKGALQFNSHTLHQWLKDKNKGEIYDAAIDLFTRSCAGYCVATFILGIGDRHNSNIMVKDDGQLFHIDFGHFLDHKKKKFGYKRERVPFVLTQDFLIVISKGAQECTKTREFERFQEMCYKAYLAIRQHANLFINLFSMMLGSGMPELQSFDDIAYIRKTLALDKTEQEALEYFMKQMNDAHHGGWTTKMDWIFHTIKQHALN

[6] = system: Pfeiffer; experiment: Antitumor activity against human Pfeiffer cells xenografted in male nude mouse assessed as tumor growth inhibition at 5 mg/kg/day, po administered for 14 days relative to control; assay type: functional; conditions: 336 h, time 14 day, read-out: TGI
[7] = system: SU-DHL-6; experiment: Antitumor activity against human SU-DHL-6 cells xenografted in male nude mouse assessed as tumor growth inhibition at 5 mg/kg/day, po administered for 14 days relative to control; assay type: functional; conditions: SU-DHL-6, 336 h, time 14 day, read-out: TGI
[8] = Toxicity in male nude mouse xenografted with human Pfeiffer cells assessed as change in body weight at 5 to 30 mg/kg/day, po administered for 14 days; assay type: organism-based; conditions: in vivo, 336 h, dose 5-30 mg/kg/day, time 14 day
[9] = system: SU-DHL-6; experiment: Induction of apoptosis in human SU-DHL-6 cells assessed as necrotic cells at 1 uM incubated for 48 hrs by Annexin V-FITC/PI staining based flow cytometric analysis (reference value: 1.05 %); assay type: functional
[10] = target: T1, Phosphatidylinositol 4,5-bisphosphate 3-kinase catalytic subunit delta isoform (Homo sapiens) (UniProt O00329); experiment: Covalent inhibition of PI3Kdelta (unknown origin) using PIP2:3PS as substrate assessed as second order rate constant (Kinact/Ki ratio) incubated upto 180 mins in presence of ATP by ADP-Glo reagent based assay
T1 sequence (whole entry): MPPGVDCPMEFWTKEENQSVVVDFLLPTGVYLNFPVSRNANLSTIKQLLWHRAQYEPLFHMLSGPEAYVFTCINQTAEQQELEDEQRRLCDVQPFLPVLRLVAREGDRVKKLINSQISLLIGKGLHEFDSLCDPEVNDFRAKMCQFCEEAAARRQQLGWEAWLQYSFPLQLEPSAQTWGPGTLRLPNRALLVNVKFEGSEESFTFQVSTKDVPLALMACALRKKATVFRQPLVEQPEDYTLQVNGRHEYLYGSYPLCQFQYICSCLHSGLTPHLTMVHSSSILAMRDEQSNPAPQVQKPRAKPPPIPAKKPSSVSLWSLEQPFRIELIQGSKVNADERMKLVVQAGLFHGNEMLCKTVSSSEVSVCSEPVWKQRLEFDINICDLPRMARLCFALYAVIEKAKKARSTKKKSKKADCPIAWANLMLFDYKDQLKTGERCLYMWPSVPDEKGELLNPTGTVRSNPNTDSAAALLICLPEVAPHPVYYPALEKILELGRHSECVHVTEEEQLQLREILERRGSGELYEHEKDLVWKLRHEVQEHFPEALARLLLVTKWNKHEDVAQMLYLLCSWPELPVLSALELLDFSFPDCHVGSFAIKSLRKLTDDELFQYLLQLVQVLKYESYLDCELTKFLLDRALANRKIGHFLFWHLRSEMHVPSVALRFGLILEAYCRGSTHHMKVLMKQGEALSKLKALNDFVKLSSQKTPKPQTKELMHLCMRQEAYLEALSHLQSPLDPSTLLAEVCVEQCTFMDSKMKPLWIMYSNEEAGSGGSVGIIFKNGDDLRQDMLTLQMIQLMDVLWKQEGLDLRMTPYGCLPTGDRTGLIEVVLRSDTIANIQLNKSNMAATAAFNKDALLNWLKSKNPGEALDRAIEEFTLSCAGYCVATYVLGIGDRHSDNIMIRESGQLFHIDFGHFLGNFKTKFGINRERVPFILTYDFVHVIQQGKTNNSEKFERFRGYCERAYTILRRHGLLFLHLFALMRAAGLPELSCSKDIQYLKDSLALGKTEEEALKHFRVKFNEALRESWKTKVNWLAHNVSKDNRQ

[11] = system: SU-DHL-6; experiment: Induction of apoptosis in human SU-DHL-6 cells assessed as viable cells at 0.01 uM incubated for 48 hrs by Annexin V-FITC/PI staining based flow cytometric analysis (reference value: 89.81 %); assay type: functional; conditions: read-out: Activity
[12] = Selectivity index, ratio of IC50 for inhibition of recombinant PI3Kgamma (unknown origin) using PIP2:3PS as substrate to IC50 for inhibition of recombinant PI3Kdelta (unknown origin) using PIP2:3PS as substrate
[13] = system: SU-DHL-6; experiment: Induction of apoptosis in human SU-DHL-6 cells assessed as viable cells at 1 uM incubated for 48 hrs by Annexin V-FITC/PI staining based flow cytometric analysis (reference value: 89.81 %); assay type: functional; conditions: read-out: Activity
[14] = Growth inhibition of PI3Kdelta-overexpressing human SU-DHL-6 cells incubated for 72 hrs by MTT assay; assay type: functional
[15] = system: SU-DHL-6; experiment: Induction of apoptosis in human SU-DHL-6 cells assessed as early apoptotic cells at 0.01 uM incubated for 48 hrs by Annexin V-FITC/PI staining based flow cytometric analysis (reference value: 5.02 %); assay type: functional
[16] = system: HCT-116; experiment: Growth inhibition of human HCT-116 cells incubated for 72 hrs by MTT assay; assay type: functional
[17] = target: Phosphatidylinositol 4,5-bisphosphate 3-kinase catalytic subunit beta isoform (Homo sapiens, UniProt P42338); experiment: Inhibition of recombinant PI3Kbeta (unknown origin) using PIP2:3PS as substrate preincubated for 20 mins followed by ATP addition and measured after 1 hrs by ADP-Glo reagent based assay
Chain of Phosphatidylinositol 4,5-bisphosphate 3-kinase catalytic subunit beta isoform (P42338 whole entry, canonical isoform): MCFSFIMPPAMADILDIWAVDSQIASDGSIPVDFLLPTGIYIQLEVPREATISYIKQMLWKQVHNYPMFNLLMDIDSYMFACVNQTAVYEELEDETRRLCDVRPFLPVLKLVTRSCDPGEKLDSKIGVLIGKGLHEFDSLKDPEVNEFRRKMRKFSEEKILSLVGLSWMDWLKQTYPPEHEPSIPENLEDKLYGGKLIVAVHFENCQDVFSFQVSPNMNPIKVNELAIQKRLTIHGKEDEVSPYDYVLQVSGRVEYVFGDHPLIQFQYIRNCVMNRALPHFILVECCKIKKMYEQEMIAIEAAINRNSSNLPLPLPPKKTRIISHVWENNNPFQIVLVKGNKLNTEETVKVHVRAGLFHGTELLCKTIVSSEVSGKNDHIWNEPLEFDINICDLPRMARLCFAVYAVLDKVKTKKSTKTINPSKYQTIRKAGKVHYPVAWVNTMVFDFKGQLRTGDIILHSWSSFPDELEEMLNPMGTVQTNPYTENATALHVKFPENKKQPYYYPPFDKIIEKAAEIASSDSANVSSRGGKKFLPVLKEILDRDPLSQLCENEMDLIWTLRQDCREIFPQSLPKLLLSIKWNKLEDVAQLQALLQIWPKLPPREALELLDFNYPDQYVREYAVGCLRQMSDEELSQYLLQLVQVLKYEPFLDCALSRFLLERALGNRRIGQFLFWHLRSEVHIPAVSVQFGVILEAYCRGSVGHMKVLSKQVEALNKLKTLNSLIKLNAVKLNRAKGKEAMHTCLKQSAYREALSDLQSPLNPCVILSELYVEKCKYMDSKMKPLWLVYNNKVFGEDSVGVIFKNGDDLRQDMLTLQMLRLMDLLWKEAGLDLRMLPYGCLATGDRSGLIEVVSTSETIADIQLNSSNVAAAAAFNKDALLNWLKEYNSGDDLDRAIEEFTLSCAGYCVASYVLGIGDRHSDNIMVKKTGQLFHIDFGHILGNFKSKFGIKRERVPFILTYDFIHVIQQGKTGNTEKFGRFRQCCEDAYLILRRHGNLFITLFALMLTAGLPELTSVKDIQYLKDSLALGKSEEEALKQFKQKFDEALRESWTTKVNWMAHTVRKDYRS

[18] = target: T1, Phosphatidylinositol 4,5-bisphosphate 3-kinase catalytic subunit delta isoform (Homo sapiens); experiment: Covalent inhibition of PI3Kdelta (unknown origin) using PIP2:3PS as substrate assessed as rate constant for irreversible inactivation (Kinact) incubated upto 180 mins in presence of ATP by ADP-Glo reagent based assay
[19] = system: SU-DHL-6; experiment: Antitumor activity against human SU-DHL-6 cells xenografted in male nude mouse assessed as reduction in Ki67 expression in tumor at 5 to 30 mg/kg/day, po administered for 14 days by immunohistochemical staining based analysis; assay type: functional, organism-based; conditions: dose 5-30 mg/kg/day, time 14.0 day
[20] = system: SU-DHL-6; experiment: Induction of apoptosis in human SU-DHL-6 cells assessed as necrotic cells at 0.1 uM incubated for 48 hrs by Annexin V-FITC/PI staining based flow cytometric analysis (reference value: 1.05 %); assay type: functional
[21] = target: T1, Phosphatidylinositol 4,5-bisphosphate 3-kinase catalytic subunit delta isoform (Homo sapiens); experiment: Induction of thermal stabilization of PI3Kdelta in human SU-DHL-6 cells at 1 uM preincubated for 30 mins followed by incubated under 40 to 75 degreeC for 3 mins by CETSA; assay type: cell-based; conditions: time 33.0 min

- Ratio IC50 [4]: 753
- IC50 [5]: 0.611 µM
- Ratio [10]: 1.76 10^5/M/s
- Ratio IC50 [12]: 359
- GI50 [16]: 1.35 µM
- IC50 [17]: 0.203 µM
- Kinact [18]: 0.02 min⁻¹
- Activity [21]: Active
SMILES: COc1ncc(-c2ccc3ncnc(N[C@H]4CCN(C(=O)C5CCOCC5)C4)c3n2)cc1C(=O)Oc1ccccc1
- inhibition in vivo at 30 mg/kg/day [1]: 61%
- Activity [2]: Dose-Dependent Effect
- inhibition [3]: Active
- inhibition in vivo at 5 mg/kg/day [6]: 44%
- inhibition in vivo at 5 mg/kg/day [7]: 84%
- Activity [8]: Non-Toxic
- Activity [9]: 1.57%
- viability at 0.01 µM [11]: 85%
- viability at 1 µM [13]: 14.2%
- GI50 [14]: 0.002 µM
- Activity [15]: 10.3%
- Activity [19]: Active
- Activity [20]: 0.92%
